In PMC11841054 (Journal of Bacteriology, 2025):

Key:
GlnA3Sc = molecular target: T1, GlnA3Sc (Streptomyces coelicolor, UniProt Q9KZC7); experiment: GS activity assay, phosphate release; assay type: biochemical; details: 50 mM substrate; glutamate and ATP co-substrates
T1 construct: gene glnA3; His-tagged (pYT/his-glnA3, pYT9 derivative) from E. coli BL21

GlnA3Mt = molecular target: T2, GlnA3Mt (Mycobacterium tuberculosis, UniProt O07752)
T2 construct: gene glnA3
T2 sequence (O07752 1-450): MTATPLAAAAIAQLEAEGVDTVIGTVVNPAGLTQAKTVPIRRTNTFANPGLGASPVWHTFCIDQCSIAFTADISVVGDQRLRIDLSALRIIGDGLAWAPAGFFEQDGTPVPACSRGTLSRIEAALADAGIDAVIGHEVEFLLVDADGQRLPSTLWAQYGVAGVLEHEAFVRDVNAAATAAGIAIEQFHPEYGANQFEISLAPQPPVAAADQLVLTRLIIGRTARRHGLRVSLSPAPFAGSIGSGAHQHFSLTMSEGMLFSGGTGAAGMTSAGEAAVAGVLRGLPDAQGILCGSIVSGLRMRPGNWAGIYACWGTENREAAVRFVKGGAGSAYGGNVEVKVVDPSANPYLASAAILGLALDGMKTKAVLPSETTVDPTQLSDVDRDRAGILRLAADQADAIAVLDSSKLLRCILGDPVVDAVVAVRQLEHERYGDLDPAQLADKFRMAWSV

T1 sequence (Q9KZC7 whole entry): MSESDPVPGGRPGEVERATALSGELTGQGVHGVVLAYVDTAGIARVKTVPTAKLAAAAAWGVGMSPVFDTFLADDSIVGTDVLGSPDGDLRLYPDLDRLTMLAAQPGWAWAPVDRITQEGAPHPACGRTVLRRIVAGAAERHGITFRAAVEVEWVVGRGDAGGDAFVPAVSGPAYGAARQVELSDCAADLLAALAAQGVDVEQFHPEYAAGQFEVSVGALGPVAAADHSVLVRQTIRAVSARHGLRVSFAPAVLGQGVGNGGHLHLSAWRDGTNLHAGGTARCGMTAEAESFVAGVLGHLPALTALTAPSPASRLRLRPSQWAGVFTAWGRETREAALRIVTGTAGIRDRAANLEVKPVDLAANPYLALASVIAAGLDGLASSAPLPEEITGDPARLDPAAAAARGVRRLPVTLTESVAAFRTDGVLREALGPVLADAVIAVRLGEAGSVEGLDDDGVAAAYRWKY

SMILES | GS activity assay, phosphate release (GlnA3Sc) | GS activity assay, phosphate release; HPLC/ESI-MS of gamma-glutamylspermidine (GlnA3Mt)
NCCCCNCCCN [spermidine] | possesses the highest turnover rate when using spermine or spermidine as substrates | the highest activity was observed with spermine and spermidine
NCCCNCCCCNCCCN [spermine] | possesses the highest turnover rate when using spermine or spermidine as substrates | –
